This is an account of results in patent US20240009202A1, “MITOCHONDRIA-TARGETED ANTIOXIDANT AS AGENT FOR TREATING PATHOLOGIC INFLAMMATION CAUSED BY MABC-R INFECTION” (MITOIMMUNE THERAPEUTICS INC., priority 2020, published 2024).

For assay [1], the system named is SIRT3. The assay can be described thus: qRT-PCR of Tnf, Il6 and Cxcl2 in Mabc-R-infected PMs with 3-TYP. It is filed as cell-based, mouse. To be noted: 3-TYP 50 μM pretreatment, Mabc-R MOI=3, 3 hours (FIG. 3C). The protocol:
(§1) BMDMs of B and PMs of C were prepared from SIRT3 WT and KO mice, and were infected with Mabc-R (MOI=3) in the presence or absence of 3-TYP (50 μM) for 3 hours. Quantitative real-time PCR analysis for Tnf, Il6, and Cxcl2 was performed. […] (Scale bar, 50 μm. *P<0.05, **P<0.01, ***P<0.001. UI, uninfected. One-way ANOVA (A to D). Data is representative of three independent experiments (D left), and values represent means (±SEM) from three or four independent experiments performed in triplicate (A to C, D right))
(§2) Primary mouse bone marrow-derived macrophages (BMDMs) were isolated and cultured as previously described. BMDMs were isolated and differentiated after culture for 4 to 5 days in medium containing 25 ng/mL macrophage colony-stimulating factor (R&D Systems, Minneapolis, MIN, USA). Peritoneal macrophages (PMs) were isolated 2 to 3 days after injection with 1 mL of PBS supplemented with 3% thioglycollate (Sigma-Aldrich, St. Louis, MO, USA). Prior to isolation, PMs in the mouse abdominal cavity were collected with pre-chilled PBS supplemented with 10% FBS. […]
(§3) RNA extraction and qPCR were performed as described in Reference. […] To analyze qPCR data, relative quantification was performed using the 2^ΔΔCt method using Gapdh as an internal control gene. Data was expressed as a relative fold change. […]

Assay [2] has as its system SIRT3. The assay can be described thus: qRT-PCR of Tnf, Il6 and Cxcl2 in Mabc-R-infected BMDMs with 3-TYP. It is filed as cell-based, mouse. To be noted: 3-TYP 50 μM pretreatment, Mabc-R MOI=3, 3 hours (FIG. 3B). The protocol:
as §1, §2, §3

Assay [3] deals with Sirt3 mRNA. Briefly: qRT-PCR analysis for Sirt3 mRNA expression in lungs of Mabc-R-infected mice. It is filed as in vivo, mouse. Conditions: 30 mg/kg, 10 dpi (FIG. 5E). The protocol:
(§4) Scale bar, 50 μm. (B to E) WT mice (n=5 each group) were left uninfected or infected intranasally with Mabc-R (1×10^7 CFU), prior to treatment with or without the compound represented by Chemical Formula 1 (30 mg/kg) and monitored at 10 days post-infection. […] The ratio of damaged mitochondria among total mitochondria was calculated quantitatively (scale bars, 200 nm). […] (*P<0.05, **P<0.01, ***P<0.001, n.s., not significant. One-way ANOVA (right) or non-parametric test (B, C, D right and E)). (Data represents three independent experiments (A left and D), and values represent means (±SEM) from three or four independent experiments performed in triplicate (A right, B, C, and E))
(§5) RNA extraction and qPCR were performed as described in Reference. Briefly, total RNA from BMDMs or lung tissues was isolated using the TRIzol reagent (Thermo Fisher Scientific). cDNA synthesis was performed using Superscript II reverse transcriptase (Invitrogen, 18064). qPCR was performed using cDNA, primers, and SYBR Green PCR Kits (Qiagen, 204074) using a Real-time PCR Cycler Rotor-Gene Q 2plex system (Qiagen GmbH, 9001620, Hilden, Germany). The samples were amplified for 50 cycles as follows: 95° C. for 5 seconds and 60° C. for 10 seconds. To analyze qPCR data, relative quantification was performed using the 2^ΔΔCt method using Gapdh as an internal control gene. Data was expressed as a relative fold change. […]
(Quantitative PCR measures a nucleic acid by following its amplification.)

The subject of assay [4] is Mabc-R. The assay can be described thus: Pulmonary CFU assay in mice infected intranasally with Mabc-R. It is filed as in vivo, mouse. To be noted: WT mice, intranasal Mabc-R 1×10^7 CFU, 30 mg/kg at 1, 3, 5, 7 and 9 dpi, sacrificed at 10 dpi (FIG. 5B).
Assay [5] deals with mitochondrial ROS. The assay can be described thus: MitoSOX Red staining of mitochondrial ROS in Mabc-R-infected BMDMs. It is filed as cell-based, mouse. Conditions: WT BMDMs, Mabc-R MOI=5, 2 hours, 20 μM, MitoSOX Red (FIG. 5A). The protocol:
as §4
Mitochondrial ROS were measured as described previously in Reference. […] After 20 minutes, the cells were washed and measured using an immunofluorescence assay. […] The mean fluorescence intensity (MFI) level of mitochondrial ROS was calculated for each sample. Each experiment was performed in triplicate, and at least 200 cells per well were counted.
The mitochondrial ROS scavenger MIT-001 (previously, NecroX-7) removes mitochondrial ROS, calcium, and reactive nitrogen species (References [32 and 33]). […] The present inventors next determined whether inhibition of mitochondrial ROS generation enhanced antimicrobial effects in vivo. […]

The subject of assay [6] is inflammatory cytokines/chemokines (Tnf, Il1b, Il6, Cxcl2, Cxcl5). Briefly: qRT-PCR analysis for cytokines/chemokines in lung tissues of Mabc-R-infected mice. The class given is in vivo, mouse. Conditions: WT mice, intranasal Mabc-R 1×10^7 CFU, 30 mg/kg, 10 dpi (FIG. 5C). The protocol:
as §4, §5

The test system of assay [7] is TNF. The assay can be described thus: TNF secretion in lung tissues of Mabc-R-infected mice (ELISA). The class given is in vivo, mouse. To be noted: Mabc-R-infected mice treated with MIT-001. Here is the method:
The concentration of TNF in lung tissues was measured using a commercially available ELISA kit (BD Biosciences, 558534, San Jose, CA, USA). Experiments were performed according to the protocol provided by the manufacturer.
We next examined the in vivo effects of MIT-001 on pathological inflammatory responses during Mabc-R infection.
(An ELISA detects its analyte on a solid surface through an enzyme-linked reagent.)

Assay [8] concerns mitochondria in alveolar cells of lung tissues. Briefly: TEM analysis of damaged mitochondria in lung tissues of Mabc-R-infected mice. It is filed as in vivo, mouse. To be noted: Mabc-R-infected mice vs vehicle control mice, 30 mg/kg, 10 dpi, TEM (FIG. 5D). The protocol:
as §4
SIRT3 WT and KO mouse lung tissues were fixed with 2.5% glutaraldehyde in a 0.1 M cacodylate buffer (pH 7.2) containing 0.1% CaCl2). After 3 hours, the cells were post-fixed with 1% OsO4 in a 0.1 M sodium cacodylate buffer containing 0.1% CaCl2) for 2 hours. The tissues were rinsed with cold distilled water and slowly dehydrated using an ethanol series and propylene oxide at 4° C. The tissues were embedded in Embed-812 and cured at 60° C. for 30 hours. Ultrathin sections (70 nm) were cut with a diamond knife and an ULTRACUT UC7 ultramicrotome (Leica) and mounted on formvar-coated copper grids. Sections were stained with 4% uranyl acetate for 7 minutes and lead citrate for 7 minutes. […]

On to `c1cncc(-c2cn[nH]n2)c1` [3-TYP], for which the “mRNA expression of proinflammatory cytokines (Tnf, Il6, Cxcl2) after infection with Mabc-R” value in assay [1] (SIRT3 KO PMs) and in assay [2] (SIRT3 KO BMDMs) was “no significant effect” each time. The “mRNA expression of Tnf, Il6, and Cxcl2 in response to Mabc-R” value in assay [1] (SIRT3 WT PMs) and in assay [2] (SIRT3 WT BMDMs) was “significantly increased” throughout.
As to `O=S1(=O)CCN(Cc2cc(NC3CCOCC3)c3[nH]c(-c4ccccc4)cc3c2)CC1` [MIT-001, 5-[(1,1-dioxido-4-thiomorpholinyl)methyl]-2-phenyl-N-(tetrahydro-2H-pyran-4-yl)-1H-indol-7-amine], the “Sirt3 mRNA levels in mouse lungs” value in assay [3] is recorded as “significantly recovered”. In assay [4], the “in vivo bacterial loads in the lungs (pulmonary CFU)” value is listed as “significantly inhibited”. For the same compound, in assay [5], the “generation of mitochondrial ROS in response to Mabc-R infection” value is on record as “remarkably suppressed”. Also, in assay [6], the “mRNA expression of inflammatory cytokines/chemokines including Tnf, Il1b, Il6, Cxcl2 and Cxcl5 in lung tissues” value was “remarkably ameliorated”. The “TNF secretion in lung tissues” value in assay [7] is “significantly downregulated”. In assay [8], the “damaged mitochondria with disrupted cristae in alveolar cells of lung tissues” value was “considerably fewer damaged mitochondria”.
